Reference: patent US12344621B2, “CGRP antagonist compounds” (Nxera Pharma UK Limited, priority 2019, dated 2025)

These molecules were tested against T1, human CGRP receptor (Homo sapiens, UniProt O60894+Q16602) (assay: cAMP functional assay (HTRF cAMP dynamic-2) in SK-N-MC cells). Settings: SK-N-MC cells endogenously expressing human CGRP receptor; challenge with EC80 human CGRP (0.3 nM); functional pKb converted from pIC50 by modified Cheng-Prussoff equation.
T1 construct: SK-N-MC endogenously expressing the human CGRP receptor; endogenous in cells; host or cells: SK-N-MC human neuroblastoma cells
T1 sequence (Q16602 23-461): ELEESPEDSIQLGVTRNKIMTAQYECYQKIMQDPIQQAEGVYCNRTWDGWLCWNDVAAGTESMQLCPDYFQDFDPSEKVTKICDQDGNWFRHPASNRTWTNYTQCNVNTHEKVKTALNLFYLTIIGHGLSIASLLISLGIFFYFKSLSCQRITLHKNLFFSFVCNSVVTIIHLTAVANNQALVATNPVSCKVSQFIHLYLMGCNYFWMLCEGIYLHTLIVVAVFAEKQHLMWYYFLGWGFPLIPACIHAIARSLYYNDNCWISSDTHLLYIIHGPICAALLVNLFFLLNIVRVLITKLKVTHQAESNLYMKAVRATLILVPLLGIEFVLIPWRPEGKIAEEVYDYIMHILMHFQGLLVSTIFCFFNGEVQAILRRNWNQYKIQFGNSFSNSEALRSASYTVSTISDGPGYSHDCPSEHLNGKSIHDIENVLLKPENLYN
T1 sequence (O60894 27-148): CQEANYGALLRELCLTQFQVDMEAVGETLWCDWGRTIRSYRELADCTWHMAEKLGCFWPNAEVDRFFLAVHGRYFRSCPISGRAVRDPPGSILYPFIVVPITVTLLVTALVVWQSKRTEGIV
Type: cell-based
Protocol: Biological Activity cAMP Functional Assay
cAMP production following receptor activation was determined using the Homogeneous Time-Resolved Fluorescence (HTRF) cAMP dynamic-2 assay (Cisbio, France). The human neuroblastoma cell line SK-N-MC endogenously expressing the human CGRP receptor was seeded at a density of 12,500 cells/well in solid walled 96 well half area plates (Costar, Catalog Number 3688, Corning Life Sciences, Germany). After 16 h incubation at 37° C. media was removed and cells were incubated at 37° C. for 30 min in serum free media containing 500 μM IBMX (Tocris, Abingdon, UK, Catalog Number 2845) and increasing concentrations of test antagonist. Following this cells were challenged with an EC80 concentration of human CGRP (0.3 nM) for a further 30 min at 37° C. and then cAMP production was determined as manufacturer's instructions before plates were read on a PheraStar fluorescence plate reader (BMG LabTech, Germany). IC50 values were derived from the inhibition curve. The pIC50 values (where pIC50=−log 10 IC50) were converted to a functional pKb value using a modified Cheng-Prussoff equation where Kd=agonist EC50 and L hot=agonist challenge concentration. The pKb values of certain compounds of the invention are detailed in Table 4.
With Cc1cc(C[C@H]2OC(=O)N3CCC4(CC3)OC(=O)Nc3ncc(cc34)CCCOCCOCCOCCN(C)C2=O)cc2cn[nH]c12 [Example 7-5, (7R)-9-methyl-7-[(7-methyl-1H-indazol-5-yl)methyl]-6,12,15,18,28-pentaoxa-4,9,24,26-tetrazatetracyclo[20.6.2.21,4.025,29]dotriaconta-22(30),23,25(29)-triene-5,8,27-trione] the Kb was 1.58 nM.
Work on Cc1cc(C[C@H]2NC(=O)c3cnc4c(c3)C[C@@]3(C4)C(=O)Nc4ncc(cc43)/C=C/COCCOCCOCCN(C)C2=O)cc2cn[nH]c12 [Example 1-4, (1S,10R,23E)-12-methyl-10-[(7-methyl-1H-indazol-5-yl)methyl]-15,18,21-trioxa-5,9,12,27,29-pentazapentacyclo[23.5.2.11,4.13,7.028,31]tetratriaconta-3,5,7(33),23,25(32),26,28(31)-heptaene-8,11,30-trione] yielded a Kb of 0.251 nM.
Cc1cc(C[C@H]2NC(=O)c3ccc4c(c3)C[C@@]3(C4)C(=O)Nc4ncc(cc43)CCCOCCOCCN(C)C2=O)cc2cn[nH]c12 [Example 3-10, (1R,10R)-12-methyl-10-[(7-methyl-1H-indazol-5-yl)methyl]-15,18-dioxa-9,12,24,26-tetrazapentacyclo[20.5.2.11,4.13,7.025,28]hentriaconta-3,5,7(30),22(29),23,25(28)-hexaene-8,11,27-trione] gave a Kb of 7.94 nM.
Molecule Cc1cc(C[C@H]2NC(=O)c3ccc4c(c3)C[C@@]3(C4)C(=O)Nc4ncc(cc43)/C=C/COCCOCCN(C)C2=O)cc2cn[nH]c12 [Example 3-1, (1R,10R,20E)-12-methyl-10-[(7-methyl-1H-indazol-5-yl)methyl]-15,18-dioxa-9,12,24,26-tetrazapentacyclo[20.5.2.11,4.13,7.025,28]hentriaconta-3,5,7(30),20,22(29),23,25(28)-heptaene-8,11,27-trione] has a Kb of 1.26 nM.
Cc1cc(C[C@H]2NC(=O)c3ccc4c(c3)C[C@]3(C4)C(=O)Nc4ncc(cc43)/C=C/COCCNCCN(C)C2=O)cc2cn[nH]c12 [Example 3-6, (1S,10R,20E)-12-methyl-10-[(7-methyl-1H-indazol-5-yl)methyl]-18-oxa-9,12,15,24,26-pentazapentacyclo[20.5.2.11,4.13,7.025,28]hentriaconta-3,5,7(30),20,22(29),23,25(28)-heptaene-8,11,27-trione] gave a Kb of 0.501 nM.
Cc1cc(C[C@H]2OC(=O)c3ccc4c(c3)C[C@@]3(C4)C(=O)Nc4ncc(cc43)/C=C/COCCOCCN(C)C2=O)cc2cn[nH]c12 [Example 5-2, (1R,10R,20E)-12-methyl-10-[(7-methyl-1H-indazol-5-yl)methyl]-9,15,18-trioxa-12,24,26-triazapentacyclo[20.5.2.11,4.13,7.025,28]hentriaconta-3,5,7(30),20,22(29),23,25(28)-heptaene-8,11,27-trione] showed a Kb of 0.398 nM.
Molecule Cc1cc(C[C@H]2NC(=O)c3cc4c(cn3)C[C@@]3(C4)C(=O)Nc4ncc(cc43)/C=C/CN(C)CCCCCN(C)C2=O)cc2cn[nH]c12 [Example 2-3, (1R,10R,20E)-12,18-dimethyl-10-[(7-methyl-1H-indazol-5-yl)methyl]-6,9,12,18,24,26-hexazapentacyclo[20.5.2.11,4.13,7.025,28]hentriaconta-3,5,7(30),20,22(29),23,25(28)-heptaene-8,11,27-trione] has a Kb of 1.26 nM.
Work on Cc1cc(C[C@H]2NC(=O)c3cc4c(cn3)C[C@@]3(C4)C(=O)Nc4ncc(cc43)/C=C/COCCCCN(C)C2=O)cc2cnn(C)c12 [Example 2-7, (1R,10R,19E)-10-[(1,7-dimethylindazol-5-yl)methyl]-12-methyl-17-oxa-6,9,12,23,25-pentazapentacyclo[19.5.2.11,4.13,7.024,27]triaconta-3,5,7(29),19,21(28),22,24(27)-heptaene-8,11,26-trione] yielded a Kb of 1 nM.
In the case of Cc1cc(C[C@H]2NC(=O)c3cnc4c(c3)C[C@@]3(C4)C(=O)Nc4ncc(cc43)/C=C/COCCCCN(C)C2=O)cc2cn[nH]c12 [Example 1-7, (1S,10R,19E)-12-methyl-10-[(7-methyl-1H-indazol-5-yl)methyl]-17-oxa-5,9,12,23,25-pentazapentacyclo[19.5.2.11,4.13,7.024,27]triaconta-3,5,7(29),19,21(28),22,24(27)-heptaene-8,11,26-trione], the Kb is reported as 0.0631 nM.
Cc1cc(C[C@H]2NC(=O)c3cc4c(cn3)C[C@@]3(C4)C(=O)Nc4ncc(cc43)/C=C/COCCCCCN(C)C2=O)cc2cnn(C)c12 [Example 2-6, (1R,10R,20E)-10-[(1,7-dimethylindazol-5-yl)methyl]-12-methyl-18-oxa-6,9,12,24,26-pentazapentacyclo[20.5.2.11,4.13,7.025,28]hentriaconta-3,5,7(30),20,22(29),23,25(28)-heptaene-8,11,27-trione] was tested, and the Kb was 0.794 nM.
With Cc1cc(C[C@H]2NC(=O)c3ccc4c(n3)CC3(C4)C(=O)Nc4ncc(cc43)/C=C/COCCOCCN(C)C2=O)cc2cn[nH]c12 (single isomer, unassigned) [Example 8-2] the Kb was 31.6 nM.
For Cc1cc(C[C@H]2NC(=O)c3cc4c(cn3)C[C@@]3(C4)C(=O)Nc4ncc(cc43)/C=C/COCCOCCN(C)C2=O)cc2cn[nH]c12 [Example 2-2, (1R,10R,20E)-12-methyl-10-[(7-methyl-1H-indazol-5-yl)methyl]-15,18-dioxa-6,9,12,24,26-pentazapentacyclo[20.5.2.11,4.13,7.025,28]hentriaconta-3,5,7(30),20,22(29),23,25(28)-heptaene-8,11,27-trione], the Kb was 0.794 nM.
With Cc1cc(C[C@H]2NC(=O)c3cc4c(cn3)C[C@]3(C4)C(=O)Nc4ncc(cc43)/C=C/COCCOCCN(C)C2=O)cc2cnn(C)c12 [Example 2-4, (1S,10R,20E)-10-[(1,7-dimethylindazol-5-yl)methyl]-12-methyl-15,18-dioxa-6,9,12,24,26-pentazapentacyclo[20.5.2.11,4.13,7.025,28]hentriaconta-3,5,7(30),20,22(29),23,25(28)-heptaene-8,11,27-trione] the Kb was 25.1 nM.
Cc1cc(C[C@H]2NC(=O)c3ccc4c(c3)C[C@]3(C4)C(=O)Nc4ncc(cc43)/C=C/COCCN(C)CCN(C)C2=O)cc2cn[nH]c12 [Example 3-5, (1S,10R,20E)-12,15-dimethyl-10-[(7-methyl-1H-indazol-5-yl)methyl]-18-oxa-9,12,15,24,26-pentazapentacyclo[20.5.2.11,4.13,7.025,28]hentriaconta-3,5,7(30),20,22(29),23,25(28)-heptaene-8,11,27-trione] showed a Kb of 0.398 nM.
For Cc1cc(C[C@H]2NC(=O)c3cc4c(cn3)C[C@]3(C4)C(=O)Nc4ncc(cc43)/C=C/COCCOCCN(C)C2=O)cc2cn[nH]c12 [Example 2-1, (1S,10R,20E)-12-methyl-10-[(7-methyl-1H-indazol-5-yl)methyl]-15,18-dioxa-6,9,12,24,26-pentazapentacyclo[20.5.2.11,4.13,7.025,28]hentriaconta-3,5,7(30),20,22(29),23,25(28)-heptaene-8,11,27-trione], the Kb was 2.51 nM.
In the case of Cc1cc(C[C@H]2NC(=O)c3cc4c(cn3)C[C@@]3(C4)C(=O)Nc4ncc(cc43)/C=C/COCCN(C)CCN(C)C2=O)cc2cnn(C)c12 [Example 2-9, (1R,10R,20E)-10-[(1,7-dimethylindazol-5-yl)methyl]-12,15-dimethyl-18-oxa-6,9,12,15,24,26-hexazapentacyclo[20.5.2.11,4.13,7.025,28]hentriaconta-3,5,7(30),20,22(29),23,25(28)-heptaene-8,11,27-trione], the Kb is reported as 1.26 nM.
In the case of Cc1cc(C[C@H]2OC(=O)c3ccc4c(c3)C[C@]3(C4)C(=O)Nc4ncc(cc43)/C=C/COCCOCCN(C)C2=O)cc2cn[nH]c12 [Example 5-1, (1S,10R,20E)-12-methyl-10-[(7-methyl-1H-indazol-5-yl)methyl]-9,15,18-trioxa-12,24,26-triazapentacyclo[20.5.2.11,4.13,7.025,28]hentriaconta-3,5,7(30),20,22(29),23,25(28)-heptaene-8,11,27-trione], the Kb is reported as 0.501 nM.
Cc1cc(C[C@H]2NC(=O)c3ccc4c(c3)C[C@]3(C4)C(=O)Nc4ncc(cc43)/C=C/COCCCCN(C)C2=O)cc2cn[nH]c12 [Example 3-4, (1S,10R,19E)-12-methyl-10-[(7-methyl-1H-indazol-5-yl)methyl]-17-oxa-9,12,23,25-tetrazapentacyclo[19.5.2.11,4.13,7.024,27]triaconta-3,5,7(29),19,21(28),22,24(27)-heptaene-8,11,26-trione] gave a Kb of 0.316 nM.
Cc1cc(C[C@@H]2OC(=O)c3cnc4c(c3)C[C@@]3(C4)C(=O)Nc4ncc(cc43)/C=C/COCCOCCN(C)C2=O)cc2cn[nH]c12 [Example 4-2, (1S,10S,20E)-12-methyl-10-[(7-methyl-1H-indazol-5-yl)methyl]-9,15,18-trioxa-5,12,24,26-tetrazapentacyclo[20.5.2.11,4.13,7.025,28]hentriaconta-3,5,7(30),20,22(29),23,25(28)-heptaene-8,11,27-trione] gave a Kb of 3.16 nM.
Cc1cc(C[C@H]2OC(=O)N3CCC4(CC3)OC(=O)Nc3ncc(cc34)/C=C/COCCOCCOCCN(C)C2=O)cc2cn[nH]c12 [Example 7-2, (7R,20E)-9-methyl-7-[(7-methyl-1H-indazol-5-yl)methyl]-6,12,15,18,28-pentaoxa-4,9,24,26-tetrazatetracyclo[20.6.2.21,4.025,29]dotriaconta-20,22(30),23,25(29)-tetraene-5,8,27-trione] was tested, and the Kb was 2 nM.
